Assay [1] has as its target Escherichia coli LpxH (UDP-2,3-diacylglucosamine hydrolase) (Escherichia coli (strain K12), UniProt P43341). Description: 50% Inhibitory Concentration (IC50) to LpxH, UMP/CMP-Glo Glycosyltransferase Assay kit. It is filed as biochemical. A digest of the protocol: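 LpxH hydrolysis of UDP-2,3-diacylglucosamine to lipid X and UMP; UMP produced is converted to ATP and quantified by luciferase luminescence (UMP/CMP-Glo). Inhibition taken from reduced light output.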

Assay [2] has as its system E. coli (ATCC 25922). Description: Minimal Inhibitory Concentration (MIC) assay, E. coli. The class given is cell-based. The following applies: Escherichia coli, read-out: MIC E. coli ATCC 25922. A digest of the protocol:
(§1)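 Broth microdilution in cation-adjusted Mueller Hinton broth, inoculum 5×10^5 CFU/mL, compounds 2-fold serially diluted from 10 mM DMSO stocks. Plates incubated 20 hours at 35° C in ambient air; MIC (μg/mL) is the lowest concentration preventing visible growth.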

Assay [3] relates to K. pneumonia (ATCC 43816). Description: Minimal Inhibitory Concentration (MIC) assay, K. pneumonia. The class given is cell-based. The following applies: Klebsiella pneumoniae, read-out: MIC K. pneumoniae ATCC43816. The gist of the method: as §1
Setting [4] is: ATCC25922, E. coli ATCC 25922, CAMHB, 20 hours at 35° C.
The mark [5] stands for this setting: K. pneumoniae ATCC43816, CAMHB, 20 hours at 35° C.

Results on 22 molecules are retold here after patent publication US20250011300A1, “PIPERAZINYLSULFONYLARYL COMPOUNDS FOR TREATMENT OF BACTERIAL INFECTIONS” (Hoffmann-La Roche Inc., priority 2021, published 2025).

Structures are written as SMILES. In brackets after ≈: the same amount, converted by molar mass. Where two headings read alike, the source gives them in different places.

In general, IC50 refers to the concentration needed to halve the response being measured. Read a low IC50 as higher potency. By MIC is commonly meant the least concentration at which growth counts as inhibited.

Sequence of Escherichia coli LpxH (UDP-2,3-diacylglucosamine hydrolase) (P43341 whole entry): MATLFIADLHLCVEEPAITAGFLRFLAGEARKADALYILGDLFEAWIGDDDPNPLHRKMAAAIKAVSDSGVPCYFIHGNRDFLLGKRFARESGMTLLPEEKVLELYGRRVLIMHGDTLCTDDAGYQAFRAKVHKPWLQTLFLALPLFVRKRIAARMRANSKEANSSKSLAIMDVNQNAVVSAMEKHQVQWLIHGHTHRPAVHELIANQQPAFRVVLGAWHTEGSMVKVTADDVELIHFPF

In the case of `CN(C)CC1CN(CC2CC(=O)N(c3ccc(S(=O)(=O)N4CCN(c5cc(C(F)(F)F)cc(Cl)n5)CC4)cc3)C2)C1` (stereo not drawn) [Example 37, 1-[4-[4-[6-Chloro-4-(trifluoromethyl)-2-pyridyl]piperazin-1-yl]sulfonylphenyl]-4-[[3-[(dimethylamino)methyl]azetidin-1-yl]methyl]pyrrolidin-2-one], the IC50 in assay [1] is 48.8 nM. The MIC in assay [2] (setting [4]) was 2.64 µg/mL (≈ 4.29 µM); in assay [3] (setting [5]), 5.27 µg/mL (≈ 8.57 µM).
Taken in the same sequence, the figures for `NCCC1CN(c2ccc(S(=O)(=O)N3CCN(c4cc(C(F)(F)F)cc(Cl)n4)CC3)cc2)C(=O)O1` (stereo not drawn) [Example 9, 5-(2-Aminoethyl)-3-[4-[4-[6-chloro-4-(trifluoromethyl)-2-pyridyl]piperazin-1-yl]sulfonylphenyl]oxazolidin-2-one] were 24.3 nM, 1.78 µg/mL (≈ 3.33 µM) and 3.57 µg/mL (≈ 6.69 µM).
The like results for `CC1C(N)CC(=O)N1c1ccc(S(=O)(=O)N2CCN(c3cc(C(F)(F)F)cc(Cl)n3)CC2)cc1` (stereo not drawn) [Example 61, 4-Amino-1-[4-[4-[6-chloro-4-(trifluoromethyl)-2-pyridyl]piperazin-1-yl]sulfonylphenyl]-5-methyl-pyrrolidin-2-one] were, in that order, 50.2 nM, 6.47 µg/mL (≈ 12.5 µM) and 6.47 µg/mL (≈ 12.5 µM).
Taken in the same sequence, the figures for `NCC1CN(C2CC(=O)N(c3ccc(S(=O)(=O)N4CCN(c5cc(C(F)(F)F)cc(Cl)n5)CC4)cc3)C2)C1` (stereo not drawn) [Example 49, 4-[3-(Aminomethyl)azetidin-1-yl]-1-[4-[4-[6-chloro-4-(trifluoromethyl)-2-pyridyl]piperazin-1-yl]sulfonylphenyl]pyrrolidin-2-one] were 82 nM, 3.87 µg/mL (≈ 6.75 µM) and 7.74 µg/mL (≈ 13.5 µM).
In assay [1], `NCCNC1CC(=O)N(c2ccc(S(=O)(=O)N3CCN(c4cc(C(F)(F)F)cc(Cl)n4)CC3)cc2)C1` (stereo not drawn) [Example 45, 4-(2-Aminoethylamino)-1-[4-[4-[6-chloro-4-(trifluoromethyl)-2-pyridyl]piperazin-1-yl]sulfonylphenyl]pyrrolidin-2-one] had an IC50 of 45.7 nM. The figures for the MIC in assay [2] (setting [4]) and in assay [3] (setting [5]) were 3.65 µg/mL (≈ 6.67 µM) and 7.29 µg/mL (≈ 13.3 µM), respectively.
Taken in the same sequence, the figures for `O=C1CC2NCCC2N1c1ccc(S(=O)(=O)N2CCN(c3cc(C(F)(F)F)cc(Cl)n3)CC2)cc1` (stereo not drawn) [Example 20, 4-[4-[4-[6-Chloro-4-(trifluoromethyl)-2-pyridyl]piperazin-1-yl]sulfonylphenyl]-1,2,3,3a,6,6a-hexahydropyrrolo[3,2-b]pyrrol-5-one] were 62.3 nM, 1.77 µg/mL (≈ 3.34 µM) and 3.54 µg/mL (≈ 6.68 µM).
The like results for `N#CC1CN(c2cc(C(F)(F)F)cc(Cl)n2)CCN1S(=O)(=O)c1ccc(N2CC(N)CC2=O)cc1` (stereo not drawn) [Example 67, 1-[4-(4-Amino-2-oxo-pyrrolidin-1-yl)phenyl]sulfonyl-4-[6-chloro-4-(trifluoromethyl)-2-pyridyl]piperazine-2-carbonitrile] were, in that order, 149 nM, 6.61 µg/mL (≈ 12.5 µM) and 13.2 µg/mL (≈ 25 µM).
The like results for `NC1CC(=O)N(c2ccc(S(=O)(=O)N3CCN(c4cc(C(F)F)cc(Cl)n4)CC3)cc2)C1` (stereo not drawn) [Example 68, 4-Amino-1-[4-[4-[6-chloro-4-(difluoromethyl)-2-pyridyl]piperazin-1-yl]sulfonylphenyl]pyrrolidin-2-one] were, in that order, 259 nM, 2.59 µg/mL (≈ 5.33 µM) and 10.3 µg/mL (≈ 21.3 µM).
In assay [1], `N[C@@H]1CC(=O)N(c2ccc(S(=O)(=O)N3CCN(c4cc(C(F)(F)[C@@H]5CNCCO5)cc(Cl)n4)CC3)cc2)C1` [Example 104] had an IC50 of 8.76 nM. In addition, the figures for the minimum inhibitory concentration (MIC) in assay [2] (setting [4]) and in assay [3] (setting [5]) were 1.01 µg/mL (≈ 1.77 µM) and 2.01 µg/mL (≈ 3.52 µM), respectively.
`NC1CC(=O)N(c2ccc(S(=O)(=O)N3CCN(c4cc(C(F)(F)C5COC5)cc(Cl)n4)CC3)cc2)C1` (stereo not drawn) [Example 97, 4-Amino-1-[4-[4-[6-chloro-4-[difluoro(oxetan-3-yl)methyl]-2-pyridyl]piperazin-1-yl]sulfonylphenyl]pyrrolidin-2-one] had an IC50 in assay [1] of 88.6 nM. The MIC was 0.85 µg/mL (≈ 1.57 µM) in assay [2] (setting [4]) and 1.27 µg/mL (≈ 2.34 µM) in assay [3] (setting [5]).
For the molecule `N[C@@H]1CC(=O)N(c2ccc(S(=O)(=O)N3CCN(c4cc(C(F)(F)C5C6COCC65)cc(Cl)n4)CC3)cc2)C1` (stereo partly drawn) [Example 101, (4R)-4-amino-1-[4-[4-[6-chloro-4-[difluoro(3-oxabicyclo[3.1.0]hexan-6-yl)methyl]-2-pyridyl]piperazin-1-yl]sulfonylphenyl]pyrrolidin-2-one], the IC50 in assay [1] was 96.8 nM. Also, the MIC in assay [2] (setting [4]) was 0.44 µg/mL (≈ 0.775 µM); in assay [3] (setting [5]), 0.89 µg/mL (≈ 1.57 µM).
Taken in the same sequence, the figures for `CN(C)CC1CN(c2ccc(S(=O)(=O)N3CCN(c4cc(C(F)(F)F)cc(Cl)n4)CC3)cc2)C(=O)O1` (stereo not drawn) [Example 28, 3-[4-[4-[6-Chloro-4-(trifluoromethyl)-2-pyridyl]piperazin-1-yl]sulfonylphenyl]-5-[(dimethylamino)methyl]oxazolidin-2-one] were 12.8 nM, 1.83 µg/mL (≈ 3.34 µM) and 1.83 µg/mL (≈ 3.34 µM).
The like results for `NC1CC(=O)N(c2ccc(S(=O)(=O)N3CCN(c4cc(C(F)(F)C5CCOC5)cc(Cl)n4)CC3)cc2)C1` (stereo not drawn) [Example 96, 4-Amino-1-[4-[4-[6-chloro-4-[difluoro(tetrahydrofuran-3-yl)methyl]-2-pyridyl]piperazin-1-yl]sulfonylphenyl]pyrrolidin-2-one] were, in that order, 3.6 nM, 3.48 µg/mL (≈ 6.26 µM) and 1.74 µg/mL (≈ 3.13 µM).
The like results for `N[C@@H]1CC(=O)N(c2ccc(S(=O)(=O)N3CCN(c4cc(C(F)(F)[C@@H]5CCCNC5)cc(Cl)n4)CC3)cc2)C1` [Example 107, (4R)-4-amino-1-[4-[4-[6-chloro-4-[difluoro-[(3R)-3-piperidyl]methyl]-2-pyridyl]piperazin-1-yl]sulfonylphenyl]pyrrolidin-2-one] were, in that order, 19.3 nM, 2.85 µg/mL (≈ 5.01 µM) and 5.7 µg/mL (≈ 10 µM).
In assay [1], `N[C@@H]1CN(C2CC(=O)N(c3ccc(S(=O)(=O)N4CCN(c5cc(C(F)(F)F)cc(Cl)n5)CC4)cc3)C2)C[C@H]1O` (stereo partly drawn) [Example 56, 4-[(3R,4R)-3-amino-4-hydroxy-pyrrolidin-1-yl]-1-[4-[4-[6-chloro-4-(trifluoromethyl)-2-pyridyl]piperazin-1-yl]sulfonylphenyl]pyrrolidin-2-one] had an IC50 of 13.6 nM. Further, the MIC in assay [2] (setting [4]) was 1.96 µg/mL (≈ 3.33 µM); in assay [3] (setting [5]) it was 3.91 µg/mL (≈ 6.64 µM).
The molecule `O=C1O[C@@H]2CNCC[C@@H]2N1c1ccc(S(=O)(=O)N2CCN(c3cc(C(F)(F)F)cc(Cl)n3)CC2)cc1` [Example 17, (3aR,7aS)-1-[4-[4-[6-chloro-4-(trifluoromethyl)-2-pyridyl]piperazin-1-yl]sulfonylphenyl]-3a,4,5,6,7,7a-hexahydrooxazolo[5,4-c]pyridin-2-one] had an IC50 in assay [1] of 482 nM. The MIC was 1.82 µg/mL (≈ 3.33 µM) in assay [2] (ATCC25922, 20 h) and 3.64 µg/mL (≈ 6.67 µM) in assay [3] (ATCC43816, 20 h).
`O=C1CC(NCCO)CN1c1ccc(S(=O)(=O)N2CCN(c3cc(C(F)(F)F)cc(Cl)n3)CC2)cc1` (stereo not drawn) [Example 46, 1-[4-[4-[6-Chloro-4-(trifluoromethyl)-2-pyridyl]piperazin-1-yl]sulfonylphenyl]-4-(2-hydroxyethylamino)pyrrolidin-2-one] gave an IC50 in assay [1] of 9.12 nM. The MIC turned out to be 1.83 µg/mL (≈ 3.34 µM) in assay [2] (setting [4]) and 3.65 µg/mL (≈ 6.66 µM) in assay [3] (setting [5]).
The like results for `N[C@@H]1CC(=O)N(c2ccc(S(=O)(=O)N3CCN(c4cc(C(F)(F)[C@H]5COCCO5)cc(Cl)n4)CC3)cc2)C1` [Example 103, (4R)-4-amino-1-[4-[4-[6-chloro-4-[[(2R)-1,4-dioxan-2-yl]-difluoro-methyl]-2-pyridyl]piperazin-1-yl]sulfonylphenyl]pyrrolidin-2-one] were, in that order, 3.5 nM, 0.89 µg/mL (≈ 1.56 µM) and 0.89 µg/mL (≈ 1.56 µM).
The like results for `N[C@@H]1CC(=O)N(c2ccc(S(=O)(=O)N3CCN(c4cc(C(F)(F)C5=CCNCC5)cc(Cl)n4)CC3)cc2)C1` [Example 106] were, in that order, 199 nM, 1.77 µg/mL (≈ 3.12 µM) and 1.77 µg/mL (≈ 3.12 µM).
Taken in the same sequence, the figures for `O=C1CC(CN2CCNCC2)CN1c1ccc(S(=O)(=O)N2CCN(c3cc(C(F)(F)F)cc(Cl)n3)CC2)cc1` (stereo not drawn) [Example 41, 1-[4-[4-[6-Chloro-4-(trifluoromethyl)-2-pyridyl]piperazin-1-yl]sulfonylphenyl]-4-(piperazin-1-ylmethyl)pyrrolidin-2-one] were 10.2 nM, 1.27 µg/mL (≈ 2.16 µM) and 2.55 µg/mL (≈ 4.34 µM).
For `NC1CN(CC2CC(=O)N(c3ccc(S(=O)(=O)N4CCN(c5cc(C(F)(F)F)cc(Cl)n5)CC4)cc3)C2)C1` (stereo not drawn) [Example 40, 4-[(3-Aminoazetidin-1-yl)methyl]-1-[4-[4-[6-chloro-4-(trifluoromethyl)-2-pyridyl]piperazin-1-yl]sulfonylphenyl]pyrrolidin-2-one], in assay [1], the IC50 was 20.9 nM. The MIC in assay [2] (setting [4]) and in assay [3] (setting [5]) was 1.79 µg/mL (≈ 3.12 µM) throughout.
`N[C@@H]1CC(=O)N(c2ccc(S(=O)(=O)N3CCN(c4cc(C(F)(F)[C@@H]5COCCO5)cc(Cl)n4)CC3)cc2)C1` [Example 102, (4R)-4-amino-1-[4-[4-[6-chloro-4-[[(2S)-1,4-dioxan-2-yl]-difluoro-methyl]-2-pyridyl]piperazin-1-yl]sulfonylphenyl]pyrrolidin-2-one] had an IC50 in assay [1] of 10.5 nM. Besides, the MIC in assay [2] (setting [4]) and in assay [3] (setting [5]) was 0.89 µg/mL (≈ 1.56 µM) each time.
